Results taken from the supplement of paper PMC10307832.

Tests used:
Test in all cases: relative viability (nuclei count vs DMSO), 5 days (fraction); higher = more cells survive
[1] = test system: ChaGo-K-1
Procedure, shortened: (§1)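 Medians of duplicate plates are given as relative viability. That measure is the nuclei count in treated wells divided by the count in vehicle wells. Counts were taken on 4× images of lung cancer cell lines in 1536-well plates, 5 days after pin-tool dosing the day after seeding with one drug alone or a fixed anchor-drug dose plus five library-drug doses (not always all listed) in √10 steps.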

[2] = test system: EKVX
Procedure, shortened: as §1

[3] = test system: EMC-BAC-2
Procedure, shortened: as §1

[4] = test system: EPLC-272H
Procedure, shortened: as §1

[5] = test system: H3255
Procedure, shortened: as §1

[6] = test system: HARA
Procedure, shortened: as §1

[7] = test system: HCC-15
Procedure, shortened: as §1

[8] = test system: HCC-827
Procedure, shortened: as §1

[9] = test system: LC-2-ad
Procedure, shortened: as §1

[10] = test system: LCLC-103H
Procedure, shortened: as §1

[11] = test system: LK-2
Procedure, shortened: as §1

[12] = test system: NCI-H1648
Procedure, shortened: as §1

[13] = test system: NCI-H1792
Procedure, shortened: as §1

[14] = test system: NCI-H1793
Procedure, shortened: as §1

[15] = test system: NCI-H1944
Procedure, shortened: as §1

[16] = test system: NCI-H2170
Procedure, shortened: as §1

[17] = test system: NCI-H23
Procedure, shortened: as §1

[18] = test system: NCI-H2405
Procedure, shortened: as §1

[19] = test system: NCI-H3122
Procedure, shortened: as §1

[20] = test system: RERF-LC-KJ
Procedure, shortened: as §1

[21] = test system: SW 1573
Procedure, shortened: as §1

[22] = test system: SW 900
Procedure, shortened: as §1

C=C1C(=O)O[C@@H](CCCCCCCC)[C@@H]1C(=O)O [C-75] + CC(=O)c1c(C)c2cnc(Nc3ccc(N4CCNCC4)cn3)nc2n(C2CCCC2)c1=O [Palbociclib] (partner 0.5 µM)
relative viability ([1]; first compound 0.08 µM): 0.87
relative viability ([1]; first compound 0.253 µM): 0.894
relative viability ([1]; first compound 0.8 µM): 0.888
relative viability ([1]; first compound 2.53 µM): 0.519
relative viability ([1]; first compound 8 µM): 0.915
relative viability ([2]; first compound 0.08 µM): 0.4
relative viability ([2]; first compound 0.253 µM): 0.307
relative viability ([2]; first compound 0.8 µM): 0.383
relative viability ([2]; first compound 8 µM): 0.425
relative viability ([3]; first compound 0.08 µM): 0.522
relative viability ([3]; first compound 0.253 µM): 0.505
relative viability ([3]; first compound 0.8 µM): 0.515
relative viability ([3]; first compound 2.53 µM): 0.438
relative viability ([3]; first compound 8 µM): 0.521
relative viability ([4]; first compound 0.08 µM): 0.312
relative viability ([4]; first compound 0.253 µM): 0.387
relative viability ([4]; first compound 0.8 µM): 0.333
relative viability ([4]; first compound 2.53 µM): 0.244
relative viability ([4]; first compound 8 µM): 0.365
relative viability ([5]; first compound 0.08 µM): 0.319
relative viability ([5]; first compound 0.253 µM): 0.28
relative viability ([5]; first compound 0.8 µM): 0.323
relative viability ([5]; first compound 2.53 µM): 0.281
relative viability ([5]; first compound 8 µM): 0.329
relative viability ([6]; first compound 0.08 µM): 0.254
relative viability ([6]; first compound 0.253 µM): 0.222
relative viability ([6]; first compound 0.8 µM): 0.273
relative viability ([6]; first compound 2.53 µM): 0.222
relative viability ([6]; first compound 8 µM): 0.28
relative viability ([7]; first compound 0.08 µM): 0.717
relative viability ([7]; first compound 0.253 µM): 0.699
relative viability ([7]; first compound 0.8 µM): 0.605
relative viability ([7]; first compound 2.53 µM): 0.628
relative viability ([7]; first compound 8 µM): 0.664
relative viability ([8]; first compound 0.253 µM): 0.519
relative viability ([8]; first compound 0.8 µM): 0.5
relative viability ([8]; first compound 8 µM): 0.494
relative viability ([9]; first compound 0.08 µM): 0.555
relative viability ([9]; first compound 0.253 µM): 0.474
relative viability ([9]; first compound 0.8 µM): 0.471
relative viability ([9]; first compound 2.53 µM): 0.381
relative viability ([9]; first compound 8 µM): 0.482
relative viability ([10]; first compound 0.08 µM): 0.447
relative viability ([10]; first compound 0.253 µM): 0.428
relative viability ([10]; first compound 0.8 µM): 0.499
relative viability ([10]; first compound 2.53 µM): 0.353
relative viability ([10]; first compound 8 µM): 0.451
relative viability ([11]; first compound 0.08 µM): 0.779
relative viability ([11]; first compound 0.253 µM): 0.754
relative viability ([11]; first compound 0.8 µM): 0.723
relative viability ([11]; first compound 2.53 µM): 0.495
relative viability ([11]; first compound 8 µM): 0.573
relative viability ([12]; first compound 0.08 µM): 0.251
relative viability ([12]; first compound 0.253 µM): 0.398
relative viability ([12]; first compound 0.8 µM): 0.292
relative viability ([12]; first compound 8 µM): 0.295
relative viability ([13]; first compound 0.08 µM): 0.67
relative viability ([13]; first compound 0.253 µM): 0.656
relative viability ([13]; first compound 0.8 µM): 0.686
relative viability ([13]; first compound 2.53 µM): 0.381
relative viability ([13]; first compound 8 µM): 0.65
relative viability ([14]; first compound 0.08 µM): 0.278
relative viability ([14]; first compound 0.253 µM): 0.311
relative viability ([14]; first compound 2.53 µM): 0.267
relative viability ([14]; first compound 8 µM): 0.306
relative viability ([15]; first compound 0.08 µM): 0.34
relative viability ([15]; first compound 0.253 µM): 0.296
relative viability ([15]; first compound 0.8 µM): 0.279
relative viability ([15]; first compound 2.53 µM): 0.305
relative viability ([15]; first compound 8 µM): 0.305
relative viability ([16]; first compound 0.08 µM): 0.388
relative viability ([16]; first compound 0.253 µM): 0.406
relative viability ([16]; first compound 0.8 µM): 0.377
relative viability ([16]; first compound 2.53 µM): 0.319
relative viability ([16]; first compound 8 µM): 0.424
relative viability ([17]; first compound 0.08 µM): 0.499
relative viability ([17]; first compound 0.253 µM): 0.582
relative viability ([17]; first compound 0.8 µM): 0.511
relative viability ([17]; first compound 2.53 µM): 0.467
relative viability ([17]; first compound 8 µM): 0.42
relative viability ([18]; first compound 0.08 µM): 0.523
relative viability ([18]; first compound 0.253 µM): 0.384
relative viability ([18]; first compound 0.8 µM): 0.557
relative viability ([18]; first compound 2.53 µM): 0.423
relative viability ([18]; first compound 8 µM): 0.515
relative viability ([19]; first compound 0.08 µM): 0.18
relative viability ([19]; first compound 0.253 µM): 0.193
relative viability ([19]; first compound 0.8 µM): 0.153
relative viability ([19]; first compound 2.53 µM): 0.18
relative viability ([19]; first compound 8 µM): 0.213
relative viability ([20]; first compound 0.08 µM): 1.06
relative viability ([20]; first compound 0.253 µM): 1.12
relative viability ([20]; first compound 0.8 µM): 1.07
relative viability ([20]; first compound 2.53 µM): 1.03
relative viability ([20]; first compound 8 µM): 1.15
relative viability ([21]; first compound 0.08 µM): 0.357
relative viability ([21]; first compound 0.253 µM): 0.394
relative viability ([21]; first compound 0.8 µM): 0.47
relative viability ([21]; first compound 2.53 µM): 0.423
relative viability ([21]; first compound 8 µM): 0.351
relative viability ([22]; first compound 0.08 µM): 0.49
relative viability ([22]; first compound 0.253 µM): 0.647
relative viability ([22]; first compound 0.8 µM): 0.601
relative viability ([22]; first compound 2.53 µM): 0.594
relative viability ([22]; first compound 8 µM): 0.607
